These results are taken from ChEMBL document CHEMBL1201862, “PubChem BioAssay data set” (2004).

Some test systems named below: OVCAR-3; RXF 393; MOLT-4; MDA-MB-231; SK-MEL-2; Hs-578T; OVCAR-8; HCT-15; EKVX; Malme-3M; SK-MEL-28; SR; HT-29; MCF7; RPMI-8226; OVCAR-5; ACHN; SN12C; 786-0; NCI-H23.
Holding throughout (test): growth of human tumour cells (NCI), 48 h

Structures are written as SMILES.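 In this assay, cells in 96-well plates receive the compound at five concentrations for 48 hours. Endpoints are linearly interpolated between the surrounding concentrations. GI50 marks 50% less growth.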 The source made the active and inactive calls. Rule as the data show it: active = GI50 up to about 1.1 µM and inactive = higher.

With `O=C(O)c1nnsc1-c1ccc(-c2snnc2C(=O)O)cc1`, the GI50 in the experiment on OVCAR-3 is 91.2 µM (inactive); in the experiment on RXF 393, > 100 µM (inactive); with MOLT-4, 17.4 µM (inactive); with MDA-MB-231 it was > 100 µM (inactive); in the experiment with SK-MEL-2, > 100 µM (inactive); in the experiment with Hs-578T it was > 100 µM (inactive). For the same molecule, the GI50 in the experiment with OVCAR-8 is > 100 µM (inactive); in the experiment with HCT-15 it was 42 µM; with EKVX it was 91.6 µM (inactive); in the experiment with Malme-3M, 56.8 µM (inactive); in the experiment with SK-MEL-28 it was > 100 µM (inactive); in the experiment on SR it was 10.5 µM (inactive). The GI50 is > 100 µM (inactive) in the experiment on HT-29; 27.7 µM (inactive) with MCF7; 29.4 µM (inactive) with RPMI-8226; > 100 µM (inactive) in the experiment with OVCAR-5; > 100 µM (inactive) in the experiment with ACHN; > 100 µM (inactive) in the experiment with SN12C. Besides, the values for the GI50 in the experiment with 786-0 and in the experiment on NCI-H23 were 43.2 µM (inactive) and > 100 µM (inactive), respectively.
In the case of `CCOC(=O)c1c(C)c(C)n2c1NC(=O)C2`, the GI50 with OVCAR-3 was > 64.4 µM (inactive); in the experiment on RXF 393, > 40.4 µM (inactive); in the experiment on MOLT-4, > 100 µM (inactive); with MDA-MB-231, 39 µM (inactive); in the experiment with SK-MEL-2 it was > 100 µM (inactive); in the experiment with Hs-578T, 20.3 µM (inactive). In addition, the GI50 with OVCAR-8 is > 70.3 µM (inactive); in the experiment with HCT-15 it was greater than 61.1 µM; in the experiment on EKVX it was > 60.5 µM (inactive); in the experiment on Malme-3M it was > 50.7 µM (inactive); in the experiment on SK-MEL-28, > 100 µM (inactive); with SR, 37.2 µM (inactive). Further, the GI50 with HT-29 was > 74.3 µM (inactive); with MCF7, 25.2 µM (inactive); with RPMI-8226, > 48 µM (inactive); in the experiment with OVCAR-5 it was > 100 µM (inactive); with ACHN, > 76.2 µM (inactive); in the experiment with SN12C, > 54.3 µM (inactive). Further, the GI50 was > 49.7 µM (inactive) in the experiment on 786-0 and > 43 µM (inactive) with NCI-H23.
As to `Cc1nn(-c2cc(Cl)ccc2[N+](=O)[O-])c(C)c1Cl`, the GI50 with OVCAR-3 is > 100 µM (inactive); with RXF 393, 2.72 µM (inactive); in the experiment with MOLT-4, 13.6 µM (inactive); with MDA-MB-231 it was 48 µM (inactive); in the experiment on SK-MEL-2 it was > 100 µM (inactive); in the experiment on Hs-578T, > 100 µM (inactive). For the same molecule, the GI50 with OVCAR-8 is > 100 µM (inactive); in the experiment on HCT-15, 40.6 µM; in the experiment on EKVX, 76 µM (inactive); in the experiment with Malme-3M it was > 100 µM (inactive); in the experiment on SK-MEL-28 it was > 100 µM (inactive); with SR, > 100 µM (inactive). Moreover, the GI50 with HT-29 was > 100 µM (inactive); in the experiment on MCF7 it was > 100 µM (inactive); with RPMI-8226, 87.7 µM (inactive); in the experiment with OVCAR-5, > 100 µM (inactive); in the experiment with ACHN it was > 100 µM (inactive); in the experiment on SN12C it was > 100 µM (inactive). Further, the GI50 in the experiment with 786-0 and with NCI-H23 was > 100 µM (inactive) throughout.
`CC1CNC(c2ccc3c(c2)Cc2cc(C4=NC(C)CN4)ccc2-3)=N1` (stereo not given): the GI50 is 20.8 µM (inactive) in the experiment with OVCAR-3; > 100 µM (inactive) in the experiment with RXF 393; 37.8 µM (inactive) in the experiment on MOLT-4; 33.6 µM (inactive) in the experiment on MDA-MB-231; 23.2 µM (inactive) with SK-MEL-2; 38.1 µM (inactive) in the experiment on Hs-578T. Moreover, the GI50 is 37.2 µM (inactive) in the experiment with OVCAR-8; greater than 100 µM with HCT-15; > 100 µM (inactive) in the experiment on EKVX; 19.2 µM (inactive) in the experiment on Malme-3M; 87.1 µM (inactive) in the experiment on SK-MEL-28; 42.9 µM (inactive) with SR. Also, the GI50 in the experiment with HT-29 is 61.2 µM (inactive); in the experiment on MCF7, 17.7 µM (inactive); in the experiment on RPMI-8226 it was 36.6 µM (inactive); with OVCAR-5 it was > 100 µM (inactive); in the experiment on ACHN, > 100 µM (inactive); in the experiment on SN12C, 48.1 µM (inactive). For the same molecule, the GI50 in the experiment on 786-0 was 54.3 µM (inactive); with NCI-H23 it was 37.2 µM (inactive).
Take `COc1cc2c3c4c1OCc1c5c(cc(c1-4)CC3[N+](C)(C)CC2)OCO5` (stereo not given): the GI50 was > 89.9 µM (inactive) in the experiment on OVCAR-3; > 100 µM (inactive) in the experiment with RXF 393; > 100 µM (inactive) in the experiment with MOLT-4; > 100 µM (inactive) in the experiment on MDA-MB-231; > 100 µM (inactive) with SK-MEL-2; 4.18 µM (inactive) with Hs-578T. In addition, the GI50 in the experiment on OVCAR-8 was > 72.9 µM (inactive); with HCT-15, greater than 100 µM; with EKVX, > 100 µM (inactive); in the experiment on Malme-3M, 60.5 µM (inactive); in the experiment on SK-MEL-28, > 100 µM (inactive); in the experiment on SR, 49.8 µM (inactive). In addition, the GI50 with HT-29 was > 100 µM (inactive); with MCF7 it was > 100 µM (inactive); with RPMI-8226, > 100 µM (inactive); in the experiment on OVCAR-5 it was > 100 µM (inactive); in the experiment on ACHN, > 100 µM (inactive); in the experiment with SN12C, 3.21 µM (inactive). For the same molecule, the GI50 in the experiment with 786-0 is 4.33 µM (inactive); with NCI-H23, 54.8 µM (inactive).
Take `CC(C)/C(Cl)=N\OC(=O)Nc1ccc(F)cc1`: the GI50 in the experiment with OVCAR-3 is 8.22 µM (inactive); with RXF 393, 16.1 µM (inactive); with MOLT-4, 1.66 µM (inactive); in the experiment with MDA-MB-231, 3.47 µM (inactive); in the experiment with SK-MEL-2 it was 17.7 µM (inactive); in the experiment on Hs-578T, 24.7 µM (inactive). The GI50 is 12.8 µM (inactive) in the experiment on OVCAR-8; 3.48 µM in the experiment with HCT-15; 5.62 µM (inactive) in the experiment on EKVX; 1.95 µM (inactive) with Malme-3M; 5.81 µM (inactive) in the experiment on SK-MEL-28; 1.68 µM (inactive) in the experiment on SR. The GI50 in the experiment on HT-29 was 2.04 µM (inactive); in the experiment with MCF7 it was 4.62 µM (inactive); with RPMI-8226, 1.94 µM (inactive); in the experiment on OVCAR-5 it was 14.6 µM (inactive); with ACHN, 3.55 µM (inactive); with SN12C, 5.87 µM (inactive). Further, the GI50 in the experiment with 786-0 is 5.18 µM (inactive); in the experiment with NCI-H23 it was 18.2 µM (inactive).
Turning to `C=C1C(=O)O[C@H]2[C@@H]3O[C@@](C)(CC/C=C(\C)CCC[C@@H]2C)[C@H](O)C[C@@H]13`, the GI50 with OVCAR-3 is 2.59 µM (inactive); with RXF 393, 3.94 µM (inactive); in the experiment on MOLT-4, 3.08 µM (inactive); with MDA-MB-231, 5.3 µM (inactive); in the experiment with SK-MEL-2, 11.8 µM (inactive); with Hs-578T, 3.29 µM (inactive). Moreover, the GI50 was 3.15 µM (inactive) with OVCAR-8; 2.56 µM in the experiment on HCT-15; 22.9 µM (inactive) with EKVX; 6.32 µM (inactive) in the experiment on Malme-3M; 7.31 µM (inactive) in the experiment on SK-MEL-28; 3.16 µM (inactive) in the experiment with SR. Also, the GI50 was 1.38 µM (inactive) with HT-29; 2.08 µM (inactive) in the experiment with MCF7; 2.25 µM (inactive) with RPMI-8226; 13.2 µM (inactive) with OVCAR-5; 1.98 µM (inactive) with ACHN; 2.28 µM (inactive) with SN12C. The GI50 is 2.75 µM (inactive) with 786-0 and 1.61 µM (inactive) in the experiment on NCI-H23.
In the case of `Cc1ccccc1OC(C)C(=O)NN1C(=O)CC(=O)N(c2ccc(Cl)cc2)C1=S` (stereo not given), the GI50 was 37.1 µM (inactive) in the experiment with OVCAR-3; 25 µM (inactive) with RXF 393; 30.5 µM (inactive) with MOLT-4; 26 µM (inactive) in the experiment on MDA-MB-231; 27.8 µM (inactive) in the experiment on SK-MEL-2; 63.2 µM (inactive) with Hs-578T. Further, the GI50 with OVCAR-8 was 34.1 µM (inactive); with HCT-15 it was 30.1 µM; in the experiment on EKVX it was 41.7 µM (inactive); in the experiment on Malme-3M, 48.2 µM (inactive); in the experiment on SK-MEL-28, 41.4 µM (inactive); in the experiment on SR, 26 µM (inactive). For the same molecule, the GI50 is 39.5 µM (inactive) in the experiment on HT-29; 31.3 µM (inactive) with MCF7; 34.4 µM (inactive) with RPMI-8226; 61.2 µM (inactive) in the experiment on OVCAR-5; 33.8 µM (inactive) with ACHN; 34.3 µM (inactive) in the experiment on SN12C. In addition, the GI50 is 34 µM (inactive) in the experiment on 786-0 and 31 µM (inactive) with NCI-H23.
For the molecule `O=C1OC(c2ccc([N+](=O)[O-])cc2)=N/C1=C\c1ccc(Cl)cc1`, the GI50 is > 100 µM (inactive) in the experiment on OVCAR-3; 62.8 µM (inactive) in the experiment on RXF 393; > 100 µM (inactive) in the experiment with MOLT-4; > 100 µM (inactive) with MDA-MB-231; > 100 µM (inactive) with SK-MEL-2; > 100 µM (inactive) with Hs-578T. In addition, the GI50 in the experiment on OVCAR-8 was > 100 µM (inactive); in the experiment with HCT-15 it was greater than 100 µM; with EKVX, > 100 µM (inactive); with Malme-3M it was > 100 µM (inactive); with SK-MEL-28, > 100 µM (inactive); in the experiment with SR, > 100 µM (inactive). The GI50 is > 100 µM (inactive) with HT-29; > 100 µM (inactive) with MCF7; > 100 µM (inactive) in the experiment with RPMI-8226; 85.1 µM (inactive) with OVCAR-5; > 100 µM (inactive) in the experiment with ACHN; > 100 µM (inactive) with SN12C. Besides, the GI50 in the experiment on 786-0 and in the experiment on NCI-H23 was > 100 µM (inactive) in each case.
On to `C[N+]1(CCN[N+]2(C)CCCCC2)CCc2ccccc2C1` (stereo not given), for which the GI50 in the experiment on OVCAR-3, with RXF 393, with MOLT-4, in the experiment with MDA-MB-231, with SK-MEL-2 and in the experiment on Hs-578T was > 100 µM (inactive) throughout. Moreover, the GI50 with OVCAR-8 is > 100 µM (inactive); with HCT-15, greater than 100 µM; in the experiment with EKVX, > 100 µM (inactive); with Malme-3M, > 100 µM (inactive); with SK-MEL-28, > 100 µM (inactive); in the experiment with SR, > 100 µM (inactive). Besides, the GI50 in the experiment on HT-29, with MCF7, with RPMI-8226, in the experiment on OVCAR-5, in the experiment on ACHN and in the experiment on SN12C was > 100 µM (inactive) in each case. Also, the GI50 in the experiment with 786-0 and in the experiment on NCI-H23 was > 100 µM (inactive) each time.
